Measurements: patent US10202387B2, “Heterocyclyl linked imidazopyridazine derivatives as PI3KB inhibitors” (Janssen Pharmaceutica NV, priority 2014, dated 2019)

What was measured:
[1] = system: Akt phosphorylated at Thr308 in PC-3 cells; assay: Cellular assay: phosphorylation of Akt (Thr308) in PC-3 cells, MSD ELISA; assay type: cell-based; conditions: Homo sapiens, 1 h, 60 min incubation with compound, read-out: IC50 pAkt_Thr308
Method: (§1) Cellular activity of PI3Kβ inhibitors was determined by quantifying the phosphorylation of Akt in PC-3 cells. Akt phosphorylated at Ser473 and Thr308 were measured using an enzyme-linked immunosorbent assay (ELISA; Meso Scale Discovery (MSD). Gaithersburg, Md.) and specific primary antibodies from MSD.
(§2) On day 1, PC3 cells (ATCC […]) were seeded into PerkinElmer MW96 plates at 25.000 cells per well, in 75 μl complete culture medium (DMEM (Dulbecco's Modified Eagle's Medium) high glucose. AQmedia™, D0819, Sigma-Aldrich) containing 10% heat inactivated FCS (Fetal Bovine Serum) and incubated at 37° C., 5% CO2 during 24 hours. On day 2, compound or DMSO (dimethyl sulfoxide) (0.3%) was added and cells were further incubated for 60 min at 37° C., 5% CO2 in a total volume of 100 μl of medium.
(§3) The phosphoprotein assay was executed according to vendor instructions in the Phospho-Akt (Ser473) Assay Whole Cell Lysate Kit (MSD #K15100D-3) and the Phospho-Akt (Thr308) Assay Whole Cell Lysate Kit (MSD #K151DYD-3) using the lysis, blocking and wash buffer provided.
(§4) Briefly, at the end of the cell treatment period, media were removed by aspiration and adherent cells were lysed in 50 μl ice-cold lysis buffer. MSD plates are supplied pre-coated with capture antibodies for Phospho-Akt (Ser473 and Thr308). After blocking, lysates from tissue culture plates were added and plates were washed. Then, a solution containing the detection antibody (anti-total Akt conjugated with an electrochemiluminescent compound-MSD Sulfo-tag label) was added. The signals were detected using an MSD SECTOR Imager 6000 and are proportional to the phospho-Akt titres.
(§5) Data were processed. The percentage of inhibition was plotted against the log concentration of test compounds, and the sigmoidal log concentration-effect curve of best fit was calculated by nonlinear regression analysis. From these concentration-response curves, the IC50 values were calculated. Five concentrations were used for curve fitting.

[2] = system: Akt phosphorylated at Ser473 in PC-3 cells; assay: Cellular assay: phosphorylation of Akt (Ser473) in PC-3 cells, MSD ELISA; assay type: cell-based; conditions: Homo sapiens, 1 h, 60 min incubation with compound, read-out: IC50 pAkt_S473
Method: as §1, §2, §3, §4, §5

PIK3Cα_h = target: T1, PIK3Cα_h (Homo sapiens, UniProt P42336); assay: Enzyme binding assay (KINOMEscan); conditions: DiscoveRx
T1 construct: purchased DiscoveRx Corporation, San Diego (KINOMEscan service)
T1 sequence (P42336 whole entry): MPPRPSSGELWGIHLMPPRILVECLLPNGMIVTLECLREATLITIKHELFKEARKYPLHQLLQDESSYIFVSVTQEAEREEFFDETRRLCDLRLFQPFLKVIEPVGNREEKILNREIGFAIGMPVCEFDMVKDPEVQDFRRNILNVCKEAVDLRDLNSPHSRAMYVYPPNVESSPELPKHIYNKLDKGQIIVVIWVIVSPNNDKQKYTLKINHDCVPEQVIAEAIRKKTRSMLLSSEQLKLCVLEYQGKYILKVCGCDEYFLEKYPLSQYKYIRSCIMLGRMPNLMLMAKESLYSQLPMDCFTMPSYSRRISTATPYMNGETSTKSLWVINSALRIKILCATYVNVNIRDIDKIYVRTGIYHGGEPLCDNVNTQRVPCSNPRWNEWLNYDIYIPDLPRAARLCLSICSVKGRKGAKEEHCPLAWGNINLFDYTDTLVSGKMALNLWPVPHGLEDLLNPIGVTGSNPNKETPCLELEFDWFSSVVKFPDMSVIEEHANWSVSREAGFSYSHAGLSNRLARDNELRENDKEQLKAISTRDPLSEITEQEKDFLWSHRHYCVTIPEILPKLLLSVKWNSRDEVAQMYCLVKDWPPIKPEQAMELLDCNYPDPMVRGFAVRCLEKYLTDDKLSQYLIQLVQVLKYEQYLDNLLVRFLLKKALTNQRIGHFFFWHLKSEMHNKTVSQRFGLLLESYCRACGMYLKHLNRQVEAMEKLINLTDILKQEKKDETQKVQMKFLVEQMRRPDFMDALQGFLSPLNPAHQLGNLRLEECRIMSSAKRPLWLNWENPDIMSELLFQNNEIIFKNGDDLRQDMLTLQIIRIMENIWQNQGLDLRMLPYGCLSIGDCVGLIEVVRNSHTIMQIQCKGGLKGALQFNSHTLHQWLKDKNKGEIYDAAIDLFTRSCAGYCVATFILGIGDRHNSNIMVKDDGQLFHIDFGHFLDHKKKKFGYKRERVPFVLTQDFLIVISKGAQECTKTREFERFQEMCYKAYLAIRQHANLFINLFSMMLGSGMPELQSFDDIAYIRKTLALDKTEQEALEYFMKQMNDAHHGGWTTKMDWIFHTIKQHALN
Method: (§6) Enzyme Binding Assays (KINOMEscan®)
(§7) Kinase enzyme binding affinities of compounds disclosed herein were determined using the KINOMEscan technology performed by DiscoveRx Corporation, San Diego, Calif., USA (www.kinomescan.com). Table A reports the obtained Kd values (nM), with the Kd being the inhibitor binding constant: […]

PIK3Cγ_h = target: T2, PIK3Cγ_h (Homo sapiens, UniProt P48736); assay: Enzyme binding assay (KINOMEscan); conditions: DiscoveRx
T2 construct: purchased DiscoveRx Corporation, San Diego (KINOMEscan service)
T2 sequence (P48736 whole entry): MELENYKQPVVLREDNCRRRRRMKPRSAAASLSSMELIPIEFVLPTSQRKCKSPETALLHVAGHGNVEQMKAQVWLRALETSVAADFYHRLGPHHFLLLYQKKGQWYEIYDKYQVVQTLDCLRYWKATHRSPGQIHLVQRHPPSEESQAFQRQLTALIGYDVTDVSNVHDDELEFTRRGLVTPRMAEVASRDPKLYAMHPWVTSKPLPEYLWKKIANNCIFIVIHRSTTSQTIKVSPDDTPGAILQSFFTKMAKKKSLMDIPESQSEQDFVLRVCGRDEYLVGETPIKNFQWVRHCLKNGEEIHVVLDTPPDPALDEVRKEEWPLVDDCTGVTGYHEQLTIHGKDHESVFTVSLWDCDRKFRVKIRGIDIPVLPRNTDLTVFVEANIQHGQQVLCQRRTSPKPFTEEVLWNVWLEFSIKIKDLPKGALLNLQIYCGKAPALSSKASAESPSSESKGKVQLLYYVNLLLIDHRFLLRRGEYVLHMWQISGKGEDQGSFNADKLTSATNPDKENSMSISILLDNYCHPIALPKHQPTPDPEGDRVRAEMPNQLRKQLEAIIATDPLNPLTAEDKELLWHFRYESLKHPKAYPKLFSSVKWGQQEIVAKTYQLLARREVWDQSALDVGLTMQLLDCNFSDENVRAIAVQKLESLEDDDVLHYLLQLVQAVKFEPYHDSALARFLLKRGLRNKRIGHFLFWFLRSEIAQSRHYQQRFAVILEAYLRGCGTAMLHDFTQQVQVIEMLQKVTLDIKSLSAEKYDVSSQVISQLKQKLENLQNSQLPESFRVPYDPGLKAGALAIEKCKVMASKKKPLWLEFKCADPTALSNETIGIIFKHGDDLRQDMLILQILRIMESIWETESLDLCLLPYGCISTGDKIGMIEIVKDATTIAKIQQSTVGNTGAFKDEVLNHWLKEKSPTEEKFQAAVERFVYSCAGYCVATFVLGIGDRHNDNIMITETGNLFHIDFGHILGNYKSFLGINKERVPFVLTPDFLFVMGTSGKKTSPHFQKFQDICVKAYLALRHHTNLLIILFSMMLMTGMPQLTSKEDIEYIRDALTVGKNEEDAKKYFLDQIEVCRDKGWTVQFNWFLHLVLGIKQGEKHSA
Method: as §6, §7

PIK3Cδ_h = target: T3, PIK3Cδ_h (Homo sapiens, UniProt O00329); assay: Enzyme binding assay (KINOMEscan); conditions: DiscoveRx
T3 construct: purchased DiscoveRx Corporation, San Diego (KINOMEscan service)
T3 sequence (O00329 1-1044): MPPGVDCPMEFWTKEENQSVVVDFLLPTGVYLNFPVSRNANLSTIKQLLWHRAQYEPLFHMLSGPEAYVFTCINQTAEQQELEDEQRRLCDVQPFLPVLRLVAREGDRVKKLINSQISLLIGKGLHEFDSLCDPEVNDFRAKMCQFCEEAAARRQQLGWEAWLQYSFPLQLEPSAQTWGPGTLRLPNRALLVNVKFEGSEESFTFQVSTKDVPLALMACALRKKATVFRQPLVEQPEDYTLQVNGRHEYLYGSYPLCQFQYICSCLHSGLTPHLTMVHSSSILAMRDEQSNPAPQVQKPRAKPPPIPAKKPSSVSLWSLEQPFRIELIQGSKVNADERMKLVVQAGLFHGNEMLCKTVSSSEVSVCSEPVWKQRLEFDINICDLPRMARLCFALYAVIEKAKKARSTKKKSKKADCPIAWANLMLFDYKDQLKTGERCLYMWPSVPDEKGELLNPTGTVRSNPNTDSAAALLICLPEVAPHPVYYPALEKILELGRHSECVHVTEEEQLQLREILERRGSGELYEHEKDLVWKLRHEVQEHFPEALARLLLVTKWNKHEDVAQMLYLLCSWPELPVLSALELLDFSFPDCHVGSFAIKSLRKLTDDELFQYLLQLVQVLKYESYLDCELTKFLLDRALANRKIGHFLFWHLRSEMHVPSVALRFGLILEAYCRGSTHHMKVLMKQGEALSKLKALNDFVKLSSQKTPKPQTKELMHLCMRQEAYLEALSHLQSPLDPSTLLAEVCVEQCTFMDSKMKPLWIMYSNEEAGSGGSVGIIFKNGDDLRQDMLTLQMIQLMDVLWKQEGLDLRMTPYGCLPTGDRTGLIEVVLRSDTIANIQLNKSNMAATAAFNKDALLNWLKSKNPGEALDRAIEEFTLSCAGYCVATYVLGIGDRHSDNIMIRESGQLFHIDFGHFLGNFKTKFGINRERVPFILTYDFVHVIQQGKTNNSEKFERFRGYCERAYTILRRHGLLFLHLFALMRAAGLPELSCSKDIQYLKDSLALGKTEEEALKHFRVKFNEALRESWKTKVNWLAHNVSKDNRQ
Method: as §6, §7

MTOR_h = target: T4, MTOR_h (Homo sapiens, UniProt P42345); assay: Enzyme binding assay (KINOMEscan); conditions: DiscoveRx
T4 construct: purchased DiscoveRx Corporation, San Diego (KINOMEscan service)
Method: as §6, §7

PIK3Cβ_h = target: T5, PIK3Cβ_h (Homo sapiens, UniProt P42338); assay: Enzyme binding assay (KINOMEscan); conditions: DiscoveRx
T5 construct: purchased DiscoveRx Corporation, San Diego (KINOMEscan service)
T5 sequence (P42338 whole entry): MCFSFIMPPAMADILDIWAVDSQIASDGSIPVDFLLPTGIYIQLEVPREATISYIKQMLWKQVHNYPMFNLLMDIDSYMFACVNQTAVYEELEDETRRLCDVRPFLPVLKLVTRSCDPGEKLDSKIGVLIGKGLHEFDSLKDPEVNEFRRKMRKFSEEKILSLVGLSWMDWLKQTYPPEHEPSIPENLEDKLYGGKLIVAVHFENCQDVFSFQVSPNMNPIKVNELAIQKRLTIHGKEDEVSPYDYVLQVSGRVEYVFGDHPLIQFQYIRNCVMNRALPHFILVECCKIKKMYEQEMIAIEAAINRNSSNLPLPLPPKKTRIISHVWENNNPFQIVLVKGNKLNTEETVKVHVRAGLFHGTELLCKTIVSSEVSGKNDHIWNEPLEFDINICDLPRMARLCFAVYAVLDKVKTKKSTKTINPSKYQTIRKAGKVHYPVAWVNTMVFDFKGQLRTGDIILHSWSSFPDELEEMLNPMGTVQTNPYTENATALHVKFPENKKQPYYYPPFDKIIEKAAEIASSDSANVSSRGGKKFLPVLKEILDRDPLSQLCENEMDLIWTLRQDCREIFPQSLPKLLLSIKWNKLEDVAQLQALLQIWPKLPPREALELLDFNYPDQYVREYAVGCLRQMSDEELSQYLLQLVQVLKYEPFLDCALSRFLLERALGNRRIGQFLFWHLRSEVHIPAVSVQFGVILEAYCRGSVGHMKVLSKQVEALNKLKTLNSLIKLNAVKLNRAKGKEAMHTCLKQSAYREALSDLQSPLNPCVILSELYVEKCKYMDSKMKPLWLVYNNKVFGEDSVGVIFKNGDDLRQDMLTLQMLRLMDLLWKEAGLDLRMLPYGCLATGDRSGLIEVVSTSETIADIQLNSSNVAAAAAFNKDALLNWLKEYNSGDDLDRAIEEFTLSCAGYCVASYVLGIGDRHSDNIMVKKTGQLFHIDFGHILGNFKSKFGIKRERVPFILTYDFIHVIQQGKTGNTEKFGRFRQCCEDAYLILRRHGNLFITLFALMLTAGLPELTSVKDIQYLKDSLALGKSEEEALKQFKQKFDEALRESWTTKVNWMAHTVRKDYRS
Method: as §6, §7

| melting point [°C] | IC50 [1] [nM] | IC50 [2] [nM] | Kd (PIK3Cα_h) [nM] | Kd (PIK3Cγ_h) [nM] | Kd (PIK3Cδ_h) [nM] | Kd (MTOR_h) [nM] | Kd (PIK3Cβ_h) [nM] | SMILES |
| --- | --- | --- | --- | --- | --- | --- | --- | --- |
| 159 | 234 | 214 | 1150 | 5250 | 98 | 407 | 2 | Cc1c(Cc2c(CN3CC(C)NC(C)C3)nc3c(-c4ccn[nH]4)cc(N4CCOCC4)nn23)cccc1C(F)(F)F (stereo not shown) [Compound 25] |
| 216 | ~62 | 275 | 692 | 10700 | 372 | > 30200 | 3 | Cc1c(Cc2c(CN3CC4(C3)CS(=O)(=O)C4)nc3c(C(N)=O)cc(N4CCOCC4)nn23)cccc1C(F)(F)F [Compound 26] |
| 140 | ~50 | ~73 | 1390 | 3000 | 5 | 3140 | 0.1 | Cc1c(Cc2c(CNC(=O)[C@@H]3C[C@@H](O)CN3)nc3c(N)cc(N4CCOCC4)nn23)cccc1C(F)(F)F [Compound 36] |
| 214 | 74 | 91 | 15100 | > 30200 | 251 | > 30200 | 2.5 | Cc1c(Cc2c(CN3CCC4(CCS4(=O)=O)C3)nc3c(N)cc(N4CCOCC4)nn23)cccc1C(F)(F)F (stereo not shown) [Compound 32] |
| 240 | > 513 | > 513 | 2400 | > 30200 | 178 | 2000 | 1.1 | CCc1c(F)cccc1Cc1c(CN2CCS(=O)(=O)CC2)nc2c(N)cc(N3CCOCC3)nn12 [Compound 45] |
